Results from US20160194718A1, “Compositions and Methods for Identification, Assessment, Prevention, and Treatment of Cancer Using Histone H3K27ME3 Biomarkers and Modulators” (DANA-FARBER CANCER INSTITUTE, INC., priority 2013, published 2016).

Legend:
H3K27me3 = test: Western blotting of B cell colonies for H3K27me3; format: cell-based, mouse
Procedure: Western blotting was performed as described in Yoda et al. (2010) Proc. Natl. Acad. Sci. U.S.A. 107:252-257. Image J (available on the World Wide Web at imagej.nih.gov/ij) was used for quantitation of immunoblots, with band intensity normalized to total H3.
(§1) GSK-J4 (KDM6A/UTX and KDM6B/JMJD3 inhibitor, catalog #M60063-2) (Kruidenier et al. (2012) Nature 488:404-408) and GSK-126 (EZH2 inhibitor, catalog #M60071-2) (McCabe et al. (2012) Nature 492:108-112) were purchased from Xcessbio. For methylcellulose experiments, at each passage DMSO, GSK-J4, or GSK-126 were added to cultures a final concentration of 1 μM. DS-ALLs (deidentified specimens obtained with informed consent under DFCI IRB protocol 05-001) were treated In vitro in quadruplicate with GSK-J4 at two-fold dilutions from 40 nM to 10 μM in RPMI with 20% calf serum supplemented with 10 ng/mL IL3, IL7, SCF, FLT3 ligand, and 50 μM beta-mercaptoethanol. After 3 days, viability was measured using CellTiter-Glo reagent and normalized to DMSO control (Promega).

wild-type B cells = test: Methylcellulose B cell colony forming / repassaging assay with drug; format: cell-based, mouse
Procedure: Whole bone marrow was harvested from 6-8-week-old mice, and red blood cells were lysed. Cells were plated in B cell (Methocult M3630, Stem Cell Technologies) or myeloid (Methocult M3434) methylcelluose media in gridded 35 mm dishes. Myeloid colonies were plated at 2×10^4 cells/ml per passage. B cell colonies were plated at 2×10^5 cells/ml in passage 1, and at 5×10^4 cells/ml per subsequent passage. Colonies were counted at 7 days, and colonies were then pooled and replated in the same manner.
as §1

[1] = test system: human primary macrophages; conditions: 10 μM; cited from earlier work
Ts1Rhr B cells = test: Methylcellulose B cell colony forming / repassaging assay with drug; format: cell-based, mouse; conditions: 1 μM added at each passage
Procedure: as §1, with “Whole bone marrow was harvested from 6-8-week-old mice, and red blood cells were lysed. Cells were plated in B cell (Methocult M3630, Stem Cell Technologies) or myeloid (Methocult M3434) methylcelluose media in gridded 35 mm dishes. Myeloid colonies were plated at 2×10^4 cells/ml per passage. B cell colonies were plated at 2×10^5 cells/ml in passage 1, and at 5×10^4 cells/ml per subsequent passage. Colonies were counted at 7 days, and colonies were then pooled and replated in the same manner. GSK-J4 (KDM6A/UTX” for “GSK-J4 (KDM6A/UTX”

DS-ALLs = DS-ALLs treated in vitro with GSK-J4, viability by CellTiter-Glo; format: cell-based; conditions: Homo sapiens, 72 h; five DS-ALLs, 3 days, two-fold dilutions 40 nM to 10 μM, normalized to DMSO; read-out: IC50 values for GSK-J4 across a panel of DS-ALLs
Procedure: as §1

[2] = 1 μM, passage 2 colonies after 14 total days in culture

| SMILES | H3K27me3 in wild-type B cells (H3K27me3; [2]) | loss of H3K27me3 after withdrawal of compound (H3K27me3; wild-type cells, one passage (7 days) after removal) | indefinite repassaging in wild-type B cells (wild-type B cells; 1 μM added at each passage) | indefinite repassaging after withdrawal of compound (wild-type B cells; wild-type cells, withdrawal at passage 5) | H3K27me3 in Ts1Rhr B cells (H3K27me3; [2]) | lipopolysaccharide-induced proinflammatory cytokine production [1] | indefinite repassaging (Ts1Rhr B cells) | colony-forming activity (Ts1Rhr B cells; vs DMSO) | IC50 (DS-ALLs) [µM] |
| --- | --- | --- | --- | --- | --- | --- | --- | --- | --- |
| CC[C@H](C)n1cc(C)c2c(C(=O)NCc3c(C)cc(C)[nH]c3=O)cc(-c3ccc(N4CCNCC4)nc3)cc21 [GSK-126, (S)-1-(sec-butyl)-N-((4,6-dimethyl-2-oxo-1,2-dihydropyridin-3-yl)methyl)-3-methyl-6-(6-(piperazin-1-yl)pyridin-3-yl)-1H-indole-4-carboxamide] | decreased H3K27me3 | reversible | sufficient to confer indefinite repassaging | reversible |  |  |  |  |  |
| CCOC(=O)CCNc1cc(N2CCc3ccccc3CC2)nc(-c2ccccn2)n1 [GSK-J4, ethyl 3-((6-(4,5-dihydro-1H-benzo[d]azepin-3(2H)-yl)-2-(pyridin-2-yl)pyrimidin-4-yl)amino)propanoate] |  |  |  |  | increased H3K27me3 | reduces | blocked indefinite repassaging | decreased colony-forming activity | 1.4 to 2.5 |
